Experimental data published in patent publication US7169604B1, “Method for PR-39 peptide mediated selective inhibition of IκBα degradation” (Beth Israel Deaconess Medical Center, priority 1998, dated 2007).
Ends that are not written are not given here.

Columns and labels:
[1] = tested on: ECV304 cells; experiment: Cell growth in culture (Coulter cell counts); assay type: cell-based, human; conditions: 10 μM, 48 hours
Experimental: Prolonged exposure to proteasome inhibitors tend to induce apoptosis in cell culture. To assess the potential cytotoxicity of PR-39, ECV304 cells were cultured in the presence of 10 μM of PR-39, MG132 or lactacystin.
50,000 ECV304 cells were plated in 6 well plates in 10% FBS-M199 and synchronized by serum deprivation in 0.5% FBS-DMEM for 48 hr. At the end of that time, cell culture medium was changed to 10% FBS-M199 and 10 μM of PR-39, lactacystin or buffer (control) were added. Forty eight hours later cell counts were determined using a Coulter Counter (Coulter Instruments, Inc.). All experiments were performed in triplicate and repeated 2 times (mean±SD).

[2] = tested on: IκBα; experiment: IκBα degradation in mouse pancreas, caerulein-induced acute pancreatitis; assay type: in vivo; conditions: 10 mg/kg i.v. 1 hour before caerulein 50 μg/kg i.v.; 30 min later
Experimental: Male mice weighing 20-25 g (ICR, Charles River Laboratories, Wilmington, Mass.) were pretreated with PR-39 (10 mg/kg, i.v.) or physiological saline 1 hour before injecting 50 μg/kg i.v. of caerulein (Research Plus, Bayonne, N.J.) to induce acute pancreatitis. 30 min later the animals were sacrificed in a CO2 chamber and a 75-100 mg piece of pancreas was removed for Western blotting and NFκB gel shift assays.
As empirically shown, induction of acute pancreatitis by treatment with the cholecystokinin analog caerulein leads to the prompt disappearance of IκBα (FIG. 2B) and activation of NFκB-dependent transcription in the pancreas (FIG. 2C).

[3] = tested on: IκBα; experiment: IκBα ubiquitination in HA-Ub expressing ECV304 cells; assay type: cell-based, human; conditions: 10 μM pretreatment, TNF-α 1 ng/ml
Experimental: ECV304 cells were stably transfected with a HA-tagged ubiquitin plasmid MT123 (kind gift of Dr. G. Walz, BIDMC). The clone with the highest expression of HA-ubiquitin was treated with 10 μM PR39 for 45 min followed by treatment with 1 ng/ml TNFα for 20 min. At that point, the cells were washed and lysed and IκBα was immunoprecipitated. Following SDS-PAGE and membrane transfer of the immunoprecipitated material, the HA-ubiquitinated IκBα was visualized by Western blotting with an anti-HA antibody (Santa Cruz).
To assess the effect of PR-39 peptide treatment on IκBα ubiquitination in intact cells, a stable ECV304-derived cell line expressing HA-tagged ubiquitin was generated. […] HA-Ub expressing ECV304 cells were exposed to 1 ng/ml TNF-α in the presence (+) or absence (−) of 10 μM PR-39 pretreatment. 45 min later the cells were lysed and subjected to IκBα immunoprecipitation followed by Western blotting of the pellet material with anti-HA antibody. Note the presence of multiple ubiquitinated IκBα intermediaries in PR-39 peptide treated cells but not in control cells.

[4] = target: T1, IκBα-VCP (Homo sapiens, UniProt P25963+P55072); experiment: IκBα-VCP binding (IκBα immunoprecipitation, anti-VCP Western blot) in ECV304 cells; assay type: cell-based; conditions: wild type ECV304 cells, 10 μM pretreatment, TNF-α 1 ng/ml
T1 construct: endogenous in cells; host or cells: wild type ECV304
Description: Wild type ECV304 cells (treated as described in FIG. 4C) were subjected to immunoprecipitation with anti-IκBα antibody (IκBα-IP) followed by Western blotting with anti-VCP-3 antibody (1:3000, dilution; a kind gift of Dr. C. C. Li (NIH)). Note the presence of 90 kD VCP band in the presence or absence of PR-39 treatment.
Pretreatment with PR-39 increased the amount of VCP in the IκBα immunoprecipitate (FIG. 4D) as would be expected given the increased amount of ubiquitinated forms of IκBα in the PR-39-treated cells.

[5] = tested on: IκBα; experiment: IκBα protein levels in ECV304 cells by Western blotting; assay type: cell-based, human; conditions: ECV cells, 2 hr exposure, 100 or 50 nM
Experimental: For IκBα expression studies, normally proliferating wild type ECV304 cells (ECV) or ECV-PR-39 and ECV-E4 cells were lysed in the loading buffer, subjected to electrophoresis on 10% SDS-PAGE gel and transferred to a PVDF membrane. IκBα expression was then determined by Western blotting with anti-IκBα antibody (Santa Cruz, Inc.). ECV304 cells treated for 2 hr with 10 μM of lactacystin (LC) were used as control.
Western blotting of ECV cell lysate was carried out following 2 hr exposure to buffer (0) or 100 or 50 nM of PR-39. […] Clearly, exposure of wild type ECV304 cells to the synthetic PR-39 peptide led to a dose-dependent increase in IκBα levels.

[6] = tested on: p21, cyclin E and c-fos; experiment: Levels of proteasome-regulated proteins by Western blotting; assay type: cell-based, human
Experimental: This is shown by FIG. 3C.
The level of proteasome-regulated cell cycle repressor p21, cyclin E and c-fos proteins were determined by Western blotting in U937 cells pretreated with various amounts of PR-39 and then exposed to TNF-α (1 ng/ml).

[7] = tested on: IκBα; experiment: IκBα phosphorylation in U937 cell culture; assay type: cell-based, human; conditions: U937 cells, 10 μM pretreatment, TNFα 1 ng/ml, 45 min
Experimental: To explore potential mechanisms of this selective inhibition, the effect of peptide administration on IκBα phosphorylation and ubiquitination was studied. It is known that TNF-α treatment leads to phosphorylation of IκBα, which is required for its subsequent ubiquitination. The result is indicated by FIG. 4A.
U937 cells cultured in the absence (−) or presence (+) of pretreatment with 10 μM PR-39 were exposed to 1 ng/ml TNFα. 45 min later the cells were lysed and subjected to SDS-PAGE and Western blotting with anti-IκBα antibody. Note the increased amount of the typical-appearing phosphorylated IκKBα band in PR-39 treated cells.

T1 sequence (P25963 whole entry): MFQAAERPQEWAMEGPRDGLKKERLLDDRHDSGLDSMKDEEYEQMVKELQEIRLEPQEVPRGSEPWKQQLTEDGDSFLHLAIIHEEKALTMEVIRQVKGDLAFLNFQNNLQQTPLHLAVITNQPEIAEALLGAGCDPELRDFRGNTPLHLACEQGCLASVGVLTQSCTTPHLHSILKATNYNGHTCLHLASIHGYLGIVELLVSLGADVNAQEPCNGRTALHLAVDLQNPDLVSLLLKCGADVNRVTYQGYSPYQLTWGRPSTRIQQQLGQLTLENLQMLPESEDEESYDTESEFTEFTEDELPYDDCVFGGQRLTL
T1 sequence (P55072 2-806 limits assumed): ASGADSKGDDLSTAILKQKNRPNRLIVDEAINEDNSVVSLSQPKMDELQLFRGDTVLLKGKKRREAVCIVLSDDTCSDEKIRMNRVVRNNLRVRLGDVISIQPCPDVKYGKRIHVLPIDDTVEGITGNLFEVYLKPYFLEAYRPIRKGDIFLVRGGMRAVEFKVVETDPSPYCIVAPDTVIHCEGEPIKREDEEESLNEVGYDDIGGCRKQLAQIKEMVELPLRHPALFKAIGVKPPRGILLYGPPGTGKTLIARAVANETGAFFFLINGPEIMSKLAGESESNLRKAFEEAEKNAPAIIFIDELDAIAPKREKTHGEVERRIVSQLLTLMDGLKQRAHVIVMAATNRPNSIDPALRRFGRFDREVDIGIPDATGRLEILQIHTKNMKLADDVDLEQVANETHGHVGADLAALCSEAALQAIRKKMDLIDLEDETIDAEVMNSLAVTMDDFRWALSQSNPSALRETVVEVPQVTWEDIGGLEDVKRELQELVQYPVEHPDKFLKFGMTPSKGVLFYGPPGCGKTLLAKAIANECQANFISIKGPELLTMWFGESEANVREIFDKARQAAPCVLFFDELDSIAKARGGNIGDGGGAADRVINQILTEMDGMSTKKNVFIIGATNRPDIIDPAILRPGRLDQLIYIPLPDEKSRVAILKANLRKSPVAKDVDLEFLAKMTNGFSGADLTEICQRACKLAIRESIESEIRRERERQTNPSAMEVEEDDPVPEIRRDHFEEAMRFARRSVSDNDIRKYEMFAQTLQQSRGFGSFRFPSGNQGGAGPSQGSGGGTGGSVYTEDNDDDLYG

Sequence: RRRPRPPYLPRPRPPPFFPPRLPPRIPPGFPPRFPPRFP [PR-39]
- cell counts [1]: lack of significant growth inhibition
- IκBα in mouse pancreas (Western blotting) [2]: preservation of IκBα
- ubiquitinated IκBα in cells [3]: accumulation of more ubiquitinated IκBα complexes
- IκBα-VCP binding [4]: does not inhibit IκBα-VCP binding
- IκBα protein levels [5]: dose-dependent increase in IκBα protein levels
- levels of p21, cyclin E and c-fos ([6]; ECV304 cells): failed to demonstrate any effect
- proteasome-mediated degradation of p21, cyclin E and c-fos ([6]; U937 cells pretreated with various amounts, then TNF-α 1 ng/ml): lack of PR-39 dependent inhibition
- amount of phosphorylated IκBα [7]: increased the amount of the phosphorylated form of IκBα
